Reference: US12005265B2, “Compositions and methods to modulate cell activity” (THE ROCKEFELLER UNIVERSITY, priority 2014, dated 2024)

What was measured:
αGFP-TRPV1 = details: HEK cells transfected with αGFP-TRPV1; 2APB; vs 0.85-fold
Experimental: Transfected cells were washed three times in PBS then loaded with Fluo-4 3 μM (Invitrogen) in the presence of sulfinpyrazone 500 μM (Sigma) for 60 min at room temperature. Cells were washed again in PBS then incubated for 30 min in sulfinpyrazone in PBS. Cells were washed and then imaged in calcium imaging buffer. Imaging was performed using a Deltavision personal DV imaging system (Applied Precision, Issawaq, WA) equipped with a custom-made ceramic lens.

N38 cells [1] = experiment: Multiphoton chloride imaging (MQAE) of stably transfected N38 cells; assay type: cell-based, mouse
Experimental: Stably transfected cells were washed with Krebs-HEPES buffer 3 times then loaded with MQAE (N-(Ethoxycarbonylmethyl)-6-Methoxyquinolinium Bromide, 5 mM, Invitrogen) for 60 min at room temperature. […] Imaging was performed using LSM 510 NLO inverted multiphoton and confocal system (Zeiss) using a 40× objective with two photon excitation at 750 nm. […] Imaging was repeated in the presence of Ruthenium red (100 μM) (2 occasions for each condition). Images were analyzed using Image J software.

HEK or N38 cells = experiment: Whole cell voltage clamp recordings of cultured HEK and N38 cells; assay type: cell-based; details: 2APB 200 μM, −60 mV
Experimental: Neurons expressing GFP were visualized using epifluorescence on an upright Zeiss Axioskop 2FS Plus microscope equipped with a Hamamatsu CCD camera. External solution contained (in mM): 140 NaCl, 2.8KCl, 2CaC2, 1 MgCl2, 1HEPES, 10 glucose, pH 7.4.
I-V relationships were obtained by measuring current responses to increasing 5 mV steps in the presence of 200 μM 2APB. Cells were held at −60 mV. Magnetic activation was applied by bringing a permanent magnet within 500 microns of the recorded cell for 5 seconds with a micromanipulator. Recordings were acquired with an Axopatch 200B amplifier, filtered to 2 kHz and digitized at 10 kHz (pClamp software, Molecular Devices). Data were analyzed using IGOR Pro (Wavemetrics) and NeuroMatic. (neuromatic.thinkrandom.com). Series resistance was monitored and not compensated for. If there was more than a 20% change in series resistance the recording was excluded.

N38 cells [2] = experiment: Calcium imaging of stably transfected N38 cells under RF or magnet; assay type: cell-based, mouse; details: N38 cells expressing αGFP-TRPV1/GFP-ferritin
Experimental: TRPV1 is a non-selective cation channel with relatively high permeability to divalent cations, particularly calcium (Ca2+>Mg2+>Na+K+Cs+)^55. […] Cells were washed again in PBS then incubated for 15-30 min in sulfinpyrazone in PBS. […] Images were acquired every 3 seconds for 3 minutes. […] Imaging was repeated in the presence of Ruthenium red (100 μM) (2 occasions for each condition). Images were analyzed using Image J software.
For studies to examine the effects of increasing RF or magnet field strength, to assess the effects of short RF treatment (10s) on calcium responses and to examine the kinetics of the calcium response, cells were loaded with FluoForte 20 μM (Enzo Life Sciences, Lorrach, Germany) in the presence of Pluronic F-127 (0.02% vol/vol) and sulfinpyrazone 500 μM. […] Imaging was performed as above with images acquired every second for 1 minute. Cells were imaged without treatment (4 occasions), before and during RF treatment at 31, 27 and 23 mT (4 occasions each), before and during application of a neodymium magnet at 280 or 130 mT (magnet 2 mm or 5 mm from the cells respectively, 4 occasions each) and before, during and after 10 second treatment with RF (31 mT) (4 occasions). Images were analyzed using Image J software.

N38 cells [3] = experiment: Effect of RF on pCREB and c-fos in N38 cells; assay type: cell-based, mouse; details: N38 cells expressing αGFP-TRPV1/GFP-ferritin
Experimental: Effect of RF or magnet on pCREB and cFos: 24 h prior to the study, cells were placed in 1% FBS medium at 32° C. to ensure minimal activation of TRPV1 and calcium dependent pathways. On the day of study, cells were incubated in 500 μl of calcium imaging buffer at room temperature (control) or in a RF field (31 mT) at room temperature. For magnet treatment, cells were treated with a static magnetic field (280 mT) for 5 seconds every 2 minutes for 1 hour at room temperature. After 60 min, the cells were placed on ice, the supernatant removed and cells lysed with RIPA buffer (40 μl, pCREB) or lysis buffer (100 μl Agilent Absolutely RNA microprep kit) and frozen at −80° C. until assay or RNA purification. Each study was repeated on 3 occasions each with 4 replicates. Control studies with N38 cells alone were performed on 2 occasions with 4 replicates.
Protein was isolated by lysis in RIPA buffer and centrifugation at 16000 rpm, 4° C. for 5 min before addition of 4× Laemelli buffer. Samples were denatured for 5 mins at 95° C. and frozen at −20° C. before assay. Samples (15 ul) were run on a 4-15% gel then transferred to PVDF membrane. Membranes were blocked (3% dried milk in TBST buffer) for 1 hour at room temperature then incubated in primary antibody (Phospho-CREB (Ser133) (87G3) Rabbit mAb (1:1000) or beta Actin Rabbit Ab (1:1000), Cell Signaling) in TBST overnight at 4 degrees. […]

[4] = N38 cells stably transfected with αGFP-TRPV1^Mutant/GFP-ferritin

| Structure (SMILES) | change in Fluo-4 fluorescence (intracellular calcium) (αGFP-TRPV1) | level of intracellular chloride measured by MQAE quenching (N38 cells [1]; [4]) | current induced by TRPV1 agonist (HEK or N38 cells; HEK cell expressing αGFP-TRPV1/GFP-ferritin) | current induced by TRPV1 agonist (HEK or N38 cells; HEK cell expressing αGFP-TRPV1^Mutant/GFP-ferritin) | effect on RF-induced rise of intracellular calcium (N38 cells [2]) | effect on magnet-induced increase of intracellular calcium (N38 cells [2]) | effect on magnet-induced increase of intracellular chloride (N38 cells [1]; N38 cells expressing αGFP-TRPV1^Mutant/GFP-ferritin) | effect on 2APB-induced increase of intracellular chloride (N38 cells [1]; [4]) | effect on RF-induced increase of pCREB and c-fos (N38 cells [3]) |
| --- | --- | --- | --- | --- | --- | --- | --- | --- | --- |
| NCCOB(c1ccccc1)c1ccccc1 [2APB, 2-aminoethoxydiphenyl borate] | 2.0 fold | significantly increased | inward current | outward current |  |  |  |  |  |
| N.N.N.N.N.N.N.N.N.N.N.N.N.N.[Cl-].[Cl-].[Cl-].[Cl-].[Cl-].[Cl-].[O-2].[O-2].[Ru+3].[Ru+3].[Ru+4] [ruthenium red] |  |  |  |  | blocked | blocked | blocked | blocked | blocked |
